Experimental findings from patent US7109193B2, “Tricyclic diazepines tocolytic oxytocin receptor antagonists” (Wyeth, priority 2001, dated 2006) are described below.

One may read the inhibition as the change of the read-out against control, counted positive when it falls.

T1 sequence (P30518 whole entry): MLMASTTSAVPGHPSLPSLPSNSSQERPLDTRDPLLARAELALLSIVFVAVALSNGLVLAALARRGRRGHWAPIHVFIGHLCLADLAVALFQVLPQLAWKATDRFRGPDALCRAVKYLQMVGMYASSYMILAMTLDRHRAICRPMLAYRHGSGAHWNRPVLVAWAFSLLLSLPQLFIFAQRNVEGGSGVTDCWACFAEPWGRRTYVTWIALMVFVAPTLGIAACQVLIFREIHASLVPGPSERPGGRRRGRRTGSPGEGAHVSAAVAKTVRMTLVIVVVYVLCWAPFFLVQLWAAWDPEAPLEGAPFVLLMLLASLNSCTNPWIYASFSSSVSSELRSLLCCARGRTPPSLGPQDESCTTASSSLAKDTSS

The assay has as its target T1, human vasopressin V2 receptor subtype (Homo sapiens, UniProt P30518).
T1 construct: host or cells: CHO cells (pZeoSV vector)
Put plainly: Vasopressin binding in Chinese Hamster Ovary cell membranes expressing human vasopressin V2 subtype receptors. Conditions: 100 nM, CHO cell membranes, [3H]arginine vasopressin, values without parentheses. Summed up: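 Radioligand displacement on membranes from CHO cells stably expressing human V2 receptor, 25 to 50 μg protein/well, in 50 mM Tris-HCl pH 7.4 with MgCl2, BSA and protease inhibitors. [^3H]arginine vasopressin (8 nM working solution) incubated 60 min at room temperature; bound label measured by filtration and scintillation counting.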
`Cc1ccccc1-c1ccc(C(=O)N2Cc3ccc(C(=O)NCCC4CCCN4C)n3Cc3ccccc32)cc1C` (stereo not shown) [Example 163, 10-[(2,2′-Dimethyl[1,1′-biphenyl]-4-yl)carbonyl]-N-[2-(1-methyl-2-pyrrolidinyl)ethyl]-10,11-dihydro-5H-pyrrolo[2,1-c][1,4]benzodiazepine-3-carboxamide]: the inhibition at 0.1 µM is 13%.

As for `C=CCN1CCN(C(=O)c2ccc3n2Cc2ccccc2N(C(=O)c2cc(Cl)c(-c4cccc(OC)c4)cc2OC)C3)CC1` [Example 226, (4-Allyl-1-piperazinyl){10-[(6-chloro-3,3′-dimethoxy[1,1′-biphenyl]-4-yl)carbonyl]-10,11-dihydro-5H-pyrrolo[2,1-c][1,4]benzodiazepin-3-yl}methanone], the inhibition at 0.1 µM is 10%.

As for `COc1cc2c(cc1OC)N(C(=O)c1ccc(-c3ccccc3C(F)(F)F)c(C)c1)Cc1cccn1C2` [Example 12, 7,8-Dimethoxy-[10,11-dihydro-5H-pyrrolo[2,1-c][1,4]benzodiazepin-10-yl][2-methyl-2′-(trifluoromethyl)[1,1′-biphenyl]-4-yl]methanone], the inhibition at 0.1 µM was -1%.

As to `COc1cc(-c2ccccc2C)c(Cl)cc1C(=O)N1Cc2ccc(C(=O)N3CCN(CCN4CCOCC4)CC3)n2Cc2ccccc21` [Example 217, {10-[(6-Chloro-3-methoxy-2′-methyl[1,1′-biphenyl]-4-yl)carbonyl]-10,11-dihydro-5H -pyrrolo[2,1-c][1,4]benzodiazepin-3-yl}{4-[2-(4-morpholinyl)ethyl]-1-piperazinyl}methanone], the inhibition at 0.1 µM was found to be 34%.

Turning to `COc1cccc(-c2cc(OC)c(C(=O)N3Cc4ccc(C(=O)N5CCN(C(C)C)CC5)n4Cc4ccccc43)cc2Cl)c1` [Example 239, {10-[(6-Chloro-3,3′-dimethoxy[1,1′-biphenyl]-4-yl)carbonyl]-10,11-dihydro-5H-pyrrolo[2,1-c][1,4]benzodiazepin-3-yl}(4-isopropyl-1-piperazinyl)methanone], the inhibition at 0.1 µM amounted to 16%.

Turning to `Cc1ccccc1-c1ccc(C(=O)N2Cc3ccc(C(=O)N(C)C4CCN(C)CC4)n3Cc3ccccc32)cc1` [Example 178, N-Methyl-10-[(2′-methyl[1,1′-biphenyl]-4-yl)carbonyl]-N-(1-methyl-4-piperidinyl)-10,11-dihydro-5H-pyrrolo[2,1-c][1,4]benzodiazepine-3-carboxamide], the inhibition at 0.1 µM is 15%.

`C=CCN1CCN(C(=O)c2ccc3n2Cc2ccccc2N(C(=O)c2ccc(-c4ccccc4OC)c(OC)c2)C3)CC1` [Example 227, (4-Allyl-1-piperazinyl){10-[(2,2′-dimethoxy[1,1′-biphenyl]-4-yl)carbonyl]-10,11-dihydro-5H -pyrrolo[2,1-c][1,4]benzodiazepin-3-yl}methanone]: the inhibition at 0.1 µM is 2%.

Take `C=CCN1CCN(C(=O)c2ccc3n2Cc2ccccc2N(C(=O)c2ccc(-c4ccccc4C)cc2)C3)CC1` [Example 224, (4-Allyl-1-piperazinyl){10-[(2′-methyl[1,1′-biphenyl]-4-yl)carbonyl]-10,11-dihydro-5H -pyrrolo[2,1-c][1,4]benzodiazepin-3-yl}methanone]: the inhibition at 0.1 µM was determined as 7%.

As to `COc1ccccc1-c1ccc(C(=O)N2Cc3ccc(C(=O)O)n3Cc3ccccc32)cc1C` [Example 9, 10-[(2′-Methoxy-2-methyl-[1,1′-biphenyl]-4-yl)carbonyl]-10,11-dihydro-5H-pyrrolo[2,1-c][1,4]benzodiazepine-3-carboxylic acid], the inhibition at 0.1 µM stood at 42%.

In the case of `COc1cc(-c2ccccc2C)c(Cl)cc1C(=O)N1Cc2ccc(C(=O)N(C)C3CCN(C)C3)n2Cc2ccccc21` (stereo not shown) [Example 190, 10-[(6-Chloro-3-methoxy-2′-methyl[1,1′-biphenyl]-4-yl)carbonyl]-N-methyl-N-(1-methyl-3-pyrrolidinyl)-10,11-dihydro-5H-pyrrolo[2,1-c][1,4]benzodiazepine-3-carboxamide], the inhibition at 0.1 µM was 9%.

On to `COc1ccccc1-c1ccc(C(=O)N2Cc3ccc(C(=O)N(C)C4CCN(C)CC4)n3Cc3ccccc32)cc1C` [Example 175, 10-[(2′-Methoxy-2-methyl[1,1′-biphenyl]-4-yl)carbonyl]-N-methyl-N-(1-methyl-4-piperidinyl)-10,11-dihydro-5H-pyrrolo[2,1-c][1,4]benzodiazepine-3-carboxamide], for which the inhibition at 0.1 µM was 17%.

As for `COc1ccccc1-c1ccc(C(=O)N2Cc3ccc(C(=O)N(C)C4CCN(C)CC4)n3Cc3ccccc32)cc1OC` [Example 183, 10-[(2,2′-Dimethoxy[1,1′-biphenyl]-4-yl)carbonyl]-N-methyl-N-(1-methyl-4-piperidinyl)-10,11-dihydro-5H-pyrrolo[2,1-c][1,4]benzodiazepine-3-carboxamide], the inhibition at 0.1 µM came out at 18%.

Regarding `COc1cc(C(=O)N2Cc3ccc(C(=O)N4CCN(CCN(C)C)CC4)n3Cc3ccccc32)ccc1-c1cccc2ccccc12` [Example 203, {4-[2-(Dimethylamino)ethyl]-1-piperazinyl}{10-[3-methoxy-4-(1-naphthyl)benzoyl]-10,11-dihydro-5H-pyrrolo[2,1-c][1,4]benzodiazepin-3-yl}methanone], the inhibition at 0.1 µM was 28%.
